The record followed here is patent US20240150321A1, “PYRAZOLYLSULFONAMIDE COMPOUNDS AND THEIR USE IN THERAPY” (HOTSPOT THERAPEUTICS, INC., priority 2022, published 2024).

Where two headings read alike, the source gives them in different places.

The subject of experiment [1] is NF-kB reporter in Jurkat cells. The experiment in a line: NF-kB reporter assay in Jurkat cells stimulated with aCD3/aCD28/PMA. It counts as cell-based. As to conditions: Jurkat cells, 1 hr compound pre-incubation, aCD3/aCD28/PMA stimulation 4 hr, One-Glo readout, read-out: NF-kB Reporter Assay IC50. The method in brief: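 Luminescence (One-Glo) from the NF-kB reporter yielded IC50 values. Stimulation lasted 4 h at 37° C with aCD3, aCD28 and PMA (final 5, 5 and 0.03 […]), after 1 h compound pre-exposure of 25,000 Jurkat cells per well in serum-free RPMI.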

For experiment [2], the target named is Avi-tagged FL MALT-1 (Homo sapiens (Human), UniProt Q9UDY8). Kind of experiment: MALT-1 Fluorogenic Peptide Cleavage Assay (MALT1 inhibition assay). It is filed as biochemical. As to conditions: Ac-LRSR-AMC peptide substrate, 30 min pre-incubation, 90 min reaction at room temperature. The method in brief: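 Cleavage of Ac-LRSR-AMC, read as fluorescence at 342/441 nm after 90 min at room temperature, with substrate working stocks of 50 μM (Km) or 280 μM (10×Km). Enzyme, Avi-tagged full-length MALT-1 (40 nM stock), was first pre-incubated 30 min with compound in citrate/HEPES pH 6.89 buffer with TCEP, EDTA, CHAPS and 2% DMSO; IC50 fitted from normalised % inhibition.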
Avi-tagged FL MALT-1, sequence (Q9UDY8 whole entry): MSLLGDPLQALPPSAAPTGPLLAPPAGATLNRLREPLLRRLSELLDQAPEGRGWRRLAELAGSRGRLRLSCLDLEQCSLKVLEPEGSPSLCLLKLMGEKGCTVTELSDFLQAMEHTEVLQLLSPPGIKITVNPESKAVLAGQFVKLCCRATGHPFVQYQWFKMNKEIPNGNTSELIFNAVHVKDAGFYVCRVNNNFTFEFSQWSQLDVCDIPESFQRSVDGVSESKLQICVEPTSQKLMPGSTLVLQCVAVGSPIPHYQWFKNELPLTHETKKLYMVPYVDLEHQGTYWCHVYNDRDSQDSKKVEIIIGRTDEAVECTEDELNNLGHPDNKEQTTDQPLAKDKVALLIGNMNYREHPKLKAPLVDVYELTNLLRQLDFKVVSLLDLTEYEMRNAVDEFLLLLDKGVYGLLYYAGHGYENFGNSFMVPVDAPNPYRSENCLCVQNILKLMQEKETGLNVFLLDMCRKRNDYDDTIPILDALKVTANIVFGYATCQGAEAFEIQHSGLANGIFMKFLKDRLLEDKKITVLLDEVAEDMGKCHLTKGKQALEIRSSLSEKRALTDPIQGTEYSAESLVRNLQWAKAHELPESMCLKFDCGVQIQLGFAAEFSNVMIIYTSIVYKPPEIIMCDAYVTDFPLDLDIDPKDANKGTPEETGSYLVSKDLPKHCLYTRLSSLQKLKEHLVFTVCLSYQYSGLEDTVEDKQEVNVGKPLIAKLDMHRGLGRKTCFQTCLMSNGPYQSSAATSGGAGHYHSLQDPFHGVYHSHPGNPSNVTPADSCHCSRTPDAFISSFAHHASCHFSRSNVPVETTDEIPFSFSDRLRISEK

Usually IC50 stands for the point on the concentration scale where inhibition reaches its midpoint. Turning to `Cn1ncc2cccc(NS(=O)(=O)c3cnn(-c4cc(C5(F)CC(F)(F)C5)ccn4)c3)c21` [Compound I-383, N-(1-methylindazol-7-yl)-1-[4-(1,3,3-trifluorocyclobutyl)pyridin-2-yl]pyrazole-4-sulfonamide], the results for the IC50 in experiment [1] (Homo sapiens) and in experiment [2] were less than 0.4 µM and greater than 2.5 µM, respectively.

Take `Cn1ncc2cccc(NS(=O)(=O)c3cnn(-c4cc(N5CC(F)C5)ccn4)c3)c21` [Compound I-438, 1-[4-(3-fluoroazetidin-1-yl)pyridin-2-yl]-N-(1-methylindazol-7-yl)pyrazole-4-sulfonamide]: the IC50 in experiment [1] (Homo sapiens) is less than 0.4 µM; in experiment [2], greater than 2.5 µM.

In the case of `C[C@@H]1CN(c2ccnc(-n3cc(S(=O)(=O)Nc4cccc5cnn(C)c45)cn3)c2)C(=O)N1C` [Compound I-347, (R)-1-(4-(3,4-dimethyl-2-oxoimidazolidin-1-yl)pyridin-2-yl)-N-(1-methyl-1H-indazol-7-yl)-1H-pyrazole-4-sulfonamide], the IC50 in experiment [1] (Homo sapiens) was less than 0.4 µM; in experiment [2] it was greater than 2.5 µM.

Take `COc1ccc2nnn(C)c2c1NS(=O)(=O)c1cnn(-c2ccnc(C(F)(F)F)c2)c1` [Compound I-52]: the IC50 in experiment [1] (Homo sapiens) was 1 to 2.5 µM; in experiment [2], greater than 2.5 µM.

`COc1ccc2cnn(C)c2c1NS(=O)(=O)c1cnn(-c2cnn3c2OCCC3)c1` [Compound I-467, N-(6-methoxy-1-methylindazol-7-yl)-1-{5H,6H,7H-pyrazolo[3,2-b] [1,3]oxazin-3-yl} pyrazole-4-sulfonamide]: the half-maximal inhibitory concentration (IC50) in experiment [1] (Homo sapiens) and in experiment [2] was greater than 2.5 µM throughout.

With `C=C(CO)c1ccnc(-n2cc(S(=O)(=O)Nc3c(OC)ccc4cnn(C)c34)cn2)c1` [Compound I-68, 1-(4-(3-Hydroxyprop-1-EN-2-yl)Pyridin-2-yl)-N-(6-Methoxy-1-Methyl-1H-Indazol-7-yl)-1H-Pyrazole-4-Sulfonamide], the IC50 in experiment [1] (Homo sapiens) is less than 0.4 µM; in experiment [2] it was no more than 0.4 µM.

As for `CCC(C)(OC)c1ccnc(-n2cc(S(=O)(=O)Nc3c(OC)ccc4cnn(C)c34)cn2)c1` (single isomer, unassigned) [Compound I-361, N-(6-methoxy-1-methyl-1H-indazol-7-yl)-1-(4-(2-methoxybutan-2-yl)pyridin-2-yl)-1H-pyrazole-4-sulfonamide], the IC50 in experiment [1] is less than 0.4 µM; in experiment [2] it was no more than 0.4 µM.

Regarding `C[C@H]1CN(c2ccnc(-n3cc(S(=O)(=O)Nc4cccc5cnn(C)c45)cn3)c2)C(=O)O1` [Compound I-319], the IC50 was less than 0.4 µM in experiment [1] (Homo sapiens) and greater than 2.5 µM in experiment [2].

For `COc1ccc2cnn(C)c2c1NS(=O)(=O)c1cnn(-c2cc(C)ccn2)c1` [Compound I-35, N-(6-Methoxy-1-Methyl-1H-Indazol-7-yl)-1-(4-Methylpyridin-2-yl)-1H-Pyrazole-4-Sulfonamide], the values for the IC50 in experiment [1] (Homo sapiens) and in experiment [2] were less than 0.4 µM and no more than 0.4 µM, respectively.

For `Cn1ncc2cccc(NS(=O)(=O)c3cnn(-c4cc(N5CCC6(CC6)C5)ccn4)c3)c21` [Compound I-410, 1-(4-{5-azaspiro[2.4]heptan-5-yl}pyridin-2-yl)-N-(1-methylindazol-7-yl)pyrazole-4-sulfonamide], the IC50 is less than 0.4 µM in experiment [1] (Homo sapiens) and greater than 2.5 µM in experiment [2].

For the molecule `CN(C)c1ccc2cnn(C)c2c1NS(=O)(=O)c1cnn(-c2ccnc(C(F)(F)F)c2)c1` [Compound I-7, N-(6-(Dimethylamino)-1-Methyl-1H-Indazol-7-yl)-1-(2-(Trifluoromethyl)Pyridin-4-yl)-1H-Pyrazole-4-Sulfonamide], the IC50 in experiment [1] (Homo sapiens) is 0.4 to 1 µM; in experiment [2], no more than 0.4 µM.

Take `Cn1ncc2cccc(NS(=O)(=O)c3cnn(-c4cc(C5(C#N)CCC5)ccn4)c3)c21` [Compound I-456]: the results for the IC50 in experiment [1] (Homo sapiens) and in experiment [2] were less than 0.4 µM and greater than 2.5 µM, respectively.

In the case of `Cn1ncc2cccc(NS(=O)(=O)c3cnn(-c4cc(N5CCCCC5)ccn4)c3)c21` [Compound I-250, N-(1-methyl-1H-indazol-7-yl)-1-(4-(piperidin-1-yl)pyridin-2-yl)-1H-pyrazole-4-sulfonamide], the IC50 in experiment [1] (Homo sapiens) was less than 0.4 µM; in experiment [2] it was greater than 2.5 µM.

As for `COc1ccc2cnn(C)c2c1NS(=O)(=O)c1cnn(-c2cnn3c2COCC3)c1` [Compound I-474, N-(6-methoxy-1-methylindazol-7-yl)-1-{4H,6H,7H-pyrazolo[3,2-c][1,4]oxazin-3-yl}pyrazole-4-sulfonamide], the half-maximal inhibitory concentration (IC50) fell in the range of 0.4 to 1 µM in experiment [1] (Homo sapiens) and 1 to 2.5 µM in experiment [2].

Take `COc1ccc2cnn(C)c2c1NS(=O)(=O)c1cnn(-c2cc(C3(OC)CC4(CC4)C3)ccn2)c1` [Compound I-485, N-(6-methoxy-1-methylindazol-7-yl)-1-(4-{5-methoxyspiro [2.3]hexan-5-yl}pyridin-2-yl) pyrazole-4-sulfonamide]: the half-inhibitory concentration (IC50) in experiment [1] (Homo sapiens) was less than 0.4 µM; in experiment [2], 0.4 to 1 µM.

On to “N-(6-Methoxy-1-Methyl-1H-Indazol-7-yl)-1-(4-(Trifluoromethyl)Pyridin-2-yl)-1H-Pyrazole-4-Sulfonamide [Compound I-5]”, for which the results for the IC50 in experiment [1] and in experiment [2] were less than 0.4 µM and no more than 0.4 µM, respectively.

Take `CN1C[C@@H](n2cc(S(=O)(=O)Nc3cccc4cnn(C)c34)cn2)CCC1=O` [Compound I-351]: the IC50 in experiment [1] (Homo sapiens) and in experiment [2] was greater than 2.5 µM each time.

`COc1ccc2cnn(C)c2c1NS(=O)(=O)c1cnn(-c2cc(C(F)(F)F)n(C)n2)c1` [Compound I-266, N-(6-methoxy-1-methyl-1H-indazol-7-yl)-1′-methyl-5′-(trifluoromethyl)-1′H-[1,3′-bipyrazole]-4-sulfonamide]: the IC50 in experiment [1] (Homo sapiens) was less than 0.4 µM; in experiment [2], no more than 0.4 µM.

In the case of `CN1C[C@H](n2cc(S(=O)(=O)Nc3cccc4cnn(C)c34)cn2)CCC1=O` [Compound I-350], the half-maximal inhibitory concentration (IC50) in experiment [1] (Homo sapiens) and in experiment [2] was greater than 2.5 µM in each case.

As for `Cc1n[nH]c2cccc(NS(=O)(=O)c3cnn(-c4cc(C5(F)COC5)ccn4)c3)c12` [Compound I-240, 1-[4-(3-fluorooxetan-3-yl)pyridin-2-yl]-N-(3-methyl-1H-indazol-4-yl)pyrazole-4-sulfonamide], the results for the IC50 in experiment [1] (Homo sapiens) and in experiment [2] were less than 0.4 µM and greater than 2.5 µM, respectively.

Take `CCc1ccc2cnn(C)c2c1NS(=O)(=O)c1cnn(-c2cc(OC)ccn2)c1` [Compound I-44, N-(6-Ethyl-1-Methyl-1H-Indazol-7-yl)-1-(4-Methoxypyridin-2-yl)-1H-Pyrazole-4-Sulfonamide]: the IC50 in experiment [1] (Homo sapiens) and in experiment [2] was greater than 2.5 µM in each case.

Take `Cn1ncc2cccc(NS(=O)(=O)c3cnn(-c4cc(N5CCC(C)(C)C5)ccn4)c3)c21` [Compound I-421, 1-(4-(3,3-dimethylpyrrolidin-1-yl)pyridin-2-yl)-N-(1-methyl-1H-indazol-7-yl)-1H-pyrazole-4-sulfonamide]: the IC50 in experiment [1] (Homo sapiens) is less than 0.4 µM; in experiment [2], greater than 2.5 µM.

Turning to `COc1cnc(C(F)(F)F)cc1-n1cc(S(=O)(=O)Nc2c(OC)ccc3cnn(C)c23)cn1` [Compound I-90, N-(6-Methoxy-1-Methyl-1H-Indazol-7-yl)-1-(5-Methoxy-2-(Trifluoromethyl)Pyridin-4-yl)-1H-Pyrazole-4-Sulfonamide], the values for the IC50 in experiment [1] (Homo sapiens) and in experiment [2] were less than 0.4 µM and no more than 0.4 µM, respectively.

For the molecule `COc1ncc2cnn(C)c2c1NS(=O)(=O)c1cnn(-c2cc(N3CC4CC4C3)ccn2)c1` (stereo not drawn) [Compound I-405], the results for the IC50 in experiment [1] (Homo sapiens) and in experiment [2] were less than 0.4 µM and greater than 2.5 µM, respectively.

For `Cn1ncc2cccc(NS(=O)(=O)c3cnn(-c4cc(C5=CCOC5)ccn4)c3)c21` [Compound I-109, 1-(4-(2,5-Dihydrofuran-3-yl)Pyridin-2-yl)-N-(1-Methyl-1H-Indazol-7-yl)-1H-Pyrazole-4-Sulfonamide], the IC50 in experiment [1] (Homo sapiens) is less than 0.4 µM; in experiment [2], greater than 2.5 µM.

Turning to `COc1ccc2cnn(C)c2c1NS(=O)(=O)c1cnn(-c2cc(N3CC(C)(F)C3)ccn2)c1` [Compound I-444, 1-(4-(3-fluoro-3-methylazetidin-1-yl)pyridin-2-yl)-N-(6-methoxy-1-methyl-1H-indazol-7-yl)-1H-pyrazole-4-sulfonamide], the IC50 was less than 0.4 µM in experiment [1] (Homo sapiens) and greater than 2.5 µM in experiment [2].

Consider `COc1ccc2[nH]nc(C)c2c1N(C)S(=O)(=O)c1cnn(-c2cc(C(F)(F)F)ccn2)c1` [Compound I-82, N-(5-Methoxy-3-Methyl-1H-Indazol-4-yl)-N-Methyl-1-(4-(Trifluoromethyl)Pyridin-2-yl)-1H-Pyrazole-4-Sulfonamide], for which the values for the IC50 in experiment [1] (Homo sapiens) and in experiment [2] were less than 0.4 µM and no more than 0.4 µM, respectively.

Take `COc1ccc2cnn(C)c2c1NS(=O)(=O)c1cnn(-c2cc(C3(C#N)CCC3)ccn2)c1` [Compound I-457, 1-(4-(1-Cyanocyclobutyl)Pyridin-2-yl)-N-(6-Methoxy-1-Methyl-1H-Indazol-7-yl)-1H-Pyrazole-4-Sulfonamide]: the values for the IC50 in experiment [1] (Homo sapiens) and in experiment [2] were less than 0.4 µM and 0.4 to 1 µM, respectively.

With `Cn1ncc2cccc(NS(=O)(=O)c3cnn(-c4cc(N5CCC(F)(F)C5)ccn4)c3)c21` [Compound I-431, 1-[4-(3,3-difluoropyrrolidin-1-yl)pyridin-2-yl]-N-(1-methylindazol-7-yl)pyrazole-4-sulfonamide], the IC50 in experiment [1] (Homo sapiens) was less than 0.4 µM; in experiment [2], greater than 2.5 µM.

For the molecule `COCC(F)(F)c1ccnc(-n2cc(S(=O)(=O)Nc3cccc4cnn(C)c34)cn2)c1` [Compound I-268], the IC50 in experiment [1] (Homo sapiens) was less than 0.4 µM; in experiment [2], greater than 2.5 µM.
